Where two headings read alike, the source gives them in different places.

Experimental findings from patent publication EP3153515A1, “COMPOUNDS FOR INHIBITING HEPATITIS C VIRUS, PHARMACEUTICAL COMPOSITIONS AND USES THEREOF” (priority 2014, dated 2015) are described below.

For one data set, the system named is ICR mice. In words: MTD screening test (acute toxicity study) in mice. Format: in vivo. The settings on record: high dosage. Here is the method: Method: ICR mice, 10 mice/group, 5 males and 5 females. A treatment group and a control group are set up for every drugs, respectively, mice in control group were administered 0.5%CMC-Na solution, i.e. the solvent of the drugs. The mice were fasted overnight but granted free access to water before the administration. Their body weight before the administration of drugs is in the range of 18.8∼24.1 g. The mice were administered the drugs by peroral lavage at the dosage of 40 mL/kg. The mice were closely observed 3 hours after the administration and twice a day afterwards for 7 days, one in the morning and one in the afternoon. At the end of the observation period, 2 mice (1 male and 1 female) were randomly selected from each treatment group and subjected to histopathological examination of part of their tissues and organs.
Two third of the novel heterocyclic compounds that have good HCV inhibiting activity (EC50: <0.05nM) after administration of the drugs by lavage at the dosage of 2000mg/kg yield a survival rate of 100%. […] Two third of the novel compounds that show high HCV inhibiting activity have very low overall toxicity (survive rate of mice after administration: 100%). It is believed that these compounds are generally nontoxic.

The next data set has as its system HCV NS5A replicon GT-1a. In words: HCV NS5A replicon anti-viral activity (EC50), dual-reporter Renilla luciferase, GT-1a. Format: cell-based. The settings on record: for EC50: Hepatitis C virus.
A further data set relates to HCV NS5A replicon GT-4a. In words: HCV NS5A replicon anti-viral activity (EC50), GT-4a. The data set is classed as cell-based. The settings on record: Hepatitis C virus, genotype 1a / genotype 4a / genotype 6a, read-out: Inhibitory activity against various HCV-NS5A subtypes(EC50, GT-1a to GT-6a) GT-4a. An excerpt: (§1) The autonomous replication level of HCV in liver cells in vitro is very low, and the only animal that can be infected by HCV is chimpanzee, therefore there is no appropriate animal model currently available for preclinical pharmacodynamic study. Some researchers have transplanted human liver tissue infected with HCV in vitro into immune deficient mice to establish an in vivo mice model, but these mice are hard to raise and the model is unstable and short of normal immunologic reaction. Moreover, the model has significant difference with the pathogenic process of hepatitis C, therefore, it has not been used for animal model to assess the action of anti-HCV medicine yet. The progress of the development of anti-viral drugs for the treatment of HCV infection had been very slow because the pathogenic mechanism and life cycle of HCV were unclear before 1999 due to the lack of cell culture system for effective multiplication of HCV. But researchers managed to achieve a breakthrough in 1999 after numerous attempts. An effective cell culture model-replicon system in which HCV is capable of autonomous replication in transfected human hepatic carcinoma cell line Huh-7 had been established in that year on the basis of subgenomic HCV RNA built with genetic engineering.
(§2) The above-mentioned cell culture model-replicon system which has been widely accepted in the industry is used in this invention for ex vivo experiments and subsequent assessment of drugs based on the experiment results.
(§3) The therapeutic effect of the compounds of this invention on HCV infection can be preliminarily assessed through the following preclinical in vitro inhibitory action test and can be further confirmed in clinical trials. Other methods used in the invention are also quite familiar to professionals in this field with ordinary technical knowledge. Method for testing the anti-viral activity(EC50) in HCV NS5A replicon system: • The viral replication level in infected cells was determined by testing Renilla luciferase with the newly established dual-reporter gene replicon system. There was a good linear relation between the expression level of the reporter gene and the HCV RNA replication level and viral protein expression level. The anti-viral activity was determined for 3 replicates in 3 replicate cells at five(5) 1:2 diluted concentration gradients, with 1 to 2 positive controls. The EC50 of the compounds was calculated in the end.
(§4) The compounds of the invention, or their stereoisomers, tautomers, esterified or amidated prodrugs, or pharmaceutically acceptable salts and mixtures have been subjected to test to determined their therapeutic effects in the treatment of HCV infection. […] Moreover, the results of 6a-6ep(Ia), 6fa-6gq(Ib) and reference compounds Ref-1(BMS-790052), Ref-2(GS5885), Ref-3 in HCV-NS5 inhibition test reveal that the cyclopentanyl/hexamethyleneamino radical containing linear polypeptide compounds 6a-6ep, 6fa-6gq and reference compounds Ref-1, Ref-2, Ref-3 have good HCV inhibitory results. […] The replicons GT-1a, GT-lb, GT-2a, GT-3a, GT-4a, GT-5a and GT-6a used for the test are routine replicons commercially available in this field. Table 1: HCV NS5A replicon inhibitory activity test results of compounds (6a-6gq) of the invention

The test system of the next data set is HCV NS5A replicon GT-3a. In words: HCV NS5A replicon anti-viral activity (EC50), GT-3a. The settings on record: Hepatitis C virus, genotype 1a / genotype 3a / genotype 6a, read-out: Inhibitory activity against various HCV-NS5A subtypes(EC50, GT-1a to GT-6a) GT-3a. The data set is classed as cell-based.
Source text: as §1, §2, §3, §4

The next data set deals with HCV NS5A replicon GT-5a. The data set can be described thus: HCV NS5A replicon anti-viral activity (EC50), GT-5a. Format: cell-based. The settings on record: Hepatitis C virus, genotype 1a / genotype 5a / genotype 6a, read-out: Inhibitory activity against various HCV-NS5A subtypes(EC50, GT-1a to GT-6a) GT-5a.
Source text: as §1, §2, §3, §4

The next data set concerns HCV NS5A replicon GT-2a. The data set can be described thus: HCV NS5A replicon anti-viral activity (EC50), GT-2a. The data set is classed as cell-based. The settings on record: Hepatitis C virus, genotype 1a / genotype 2a / genotype 6a; GT-2a replicon; read-out: Inhibitory activity against various HCV-NS5A subtypes(EC50, GT-1a to GT-6a) GT-2a.
Source text: as §1, §2, §3, §4

Another data set deals with HCV NS5A replicon GT-lb. In words: HCV NS5A replicon anti-viral activity (EC50), GT-1b. The data set is classed as cell-based. The settings on record: Hepatitis C virus, genotype 1a / genotype 6a, read-out: Inhibitory activity against various HCV-NS5A subtypes(EC50, GT-1a to GT-6a) GT-lb.
Source text: as §1, §2, §3, §4

The subject of the next data set is HCV NS5A replicon GT-6a. In words: HCV NS5A replicon anti-viral activity (EC50), GT-6a. The settings on record: Hepatitis C virus, genotype 1a / genotype 6a; GT-6a replicon; read-out: Inhibitory activity against various HCV-NS5A subtypes(EC50, GT-1a to GT-6a) GT-6a. Format: cell-based.
Source text: as §1, §2, §3, §4

Setting [1] is: GT1A, GT-1a replicon, read-out: NS5A Inhibitory Activity (EC50 of GT-1a subtype inhibition).
Where [2] appears, read: genotype 1a / genotype 6a, read-out: Inhibitory activity against various HCV-NS5A subtypes(EC50, GT-1a to GT-6a) GT-1a.

On to `COC(=O)N[C@@H](C(=O)N1CC=C[C@H]1c1ncc(-c2ccc(-c3csc4c(-c5c[nH]c([C@@H]6CCCN6C(=O)[C@H](NC(=O)OC)c6ccccc6)n5)csc34)cc2)[nH]1)c1ccccc1` [6fm], for which the “toxicity (in words)” value in the data set with ICR mice was “low toxicity at high dosage”. Moreover, the EC50 in the data set on HCV NS5A replicon GT-1a (setting [1]) was in the range of 0.001 to 0.999 nM.
On to `COC(=O)N[C@H](C(=O)N1CCC[C@H]1c1nc(-c2ccc(-c3ccc(-c4cnc([C@@H]5CCCN5C(=O)[C@@H](NC(=O)OC)C(C)C)[nH]4)cc3)cc2)c[nH]1)C(C)C` [Ref-1, BMS-790052, reference compound], for which the EC50 in the data set with HCV NS5A replicon GT-4a was 0.011 nM; with HCV NS5A replicon GT-3a, 0.218 nM; with HCV NS5A replicon GT-5a it was 0.036 nM; with HCV NS5A replicon GT-2a, 0.029 nM; in the data set with HCV NS5A replicon GT-lb it was 0.021 nM; in the data set with HCV NS5A replicon GT-1a (setting [1]) it was 0.001 to 0.999 nM. In addition, the EC50 in the data set on HCV NS5A replicon GT-1a (setting [2]) is 0.052 nM; with HCV NS5A replicon GT-6a, 0.118 nM.
For `COC(=O)N[C@H](C(=O)N1CC=C[C@H]1c1ncc(-c2ccc(-c3ccc(-c4c[nH]c([C@@H]5CCCN5C(=O)[C@@H](NC(=O)OC)C(C)C)n4)cc3)cc2)[nH]1)C(C)C` [6ba], the EC50 is 0.01 nM in the data set on HCV NS5A replicon GT-4a; 0.173 nM in the data set with HCV NS5A replicon GT-3a; 0.023 nM in the data set with HCV NS5A replicon GT-5a; 0.016 nM with HCV NS5A replicon GT-2a; 0.012 nM with HCV NS5A replicon GT-lb; 0.001 to 0.999 nM in the data set with HCV NS5A replicon GT-1a (setting [1]). The EC50 turned out to be 0.039 nM in the data set with HCV NS5A replicon GT-1a (setting [2]) and 0.221 nM in the data set on HCV NS5A replicon GT-6a.
As to `COC(=O)N[C@H](C(=O)N1CC=C[C@H]1c1ncc(-c2ccc(-c3cc4sc(-c5cnc([C@@H]6CCCN6C(=O)[C@H](NC(=O)OC)c6ccccc6)[nH]5)cc4s3)cc2)[nH]1)C(C)C` [6fd], the EC50 with HCV NS5A replicon GT-4a was 0.005 nM; in the data set with HCV NS5A replicon GT-3a, 0.026 nM; in the data set on HCV NS5A replicon GT-5a, 0.013 nM; in the data set with HCV NS5A replicon GT-2a it was 0.007 nM; in the data set on HCV NS5A replicon GT-lb, 0.005 nM; in the data set on HCV NS5A replicon GT-1a (setting [1]) it was 0.001 to 0.999 nM. In addition, the EC50 in the data set on HCV NS5A replicon GT-1a (setting [2]) is 0.02 nM; in the data set on HCV NS5A replicon GT-6a it was 0.055 nM.
As for `COC(=O)N[C@H](C(=O)N1CCC[C@H]1c1nc(-c2ccc(-c3ccc(-c4cnc([C@@H]5C=CCN5C(=O)[C@H](NC(=O)OC)c5ccccc5)[nH]4)cc3)cc2)c[nH]1)C(C)C` [6dy], the EC50 with HCV NS5A replicon GT-4a was 0.008 nM; with HCV NS5A replicon GT-3a, 0.015 nM; with HCV NS5A replicon GT-5a it was 0.023 nM; with HCV NS5A replicon GT-2a it was 0.006 nM; in the data set with HCV NS5A replicon GT-lb it was 0.014 nM; in the data set with HCV NS5A replicon GT-1a (setting [1]), 0.001 to 0.999 nM. The EC50 in the data set with HCV NS5A replicon GT-1a (setting [2]) was 0.011 nM; with HCV NS5A replicon GT-6a, 0.024 nM. Further, in the data set on ICR mice, the “toxicity (in words)” value is on record as “low toxicity at high dosage”. Further, in the data set with HCV NS5A replicon GT-1a (comparison drawn from Table 2), the “inhibitory activity compared with Ref-1(BMS-790052), Ref-2(GS5885), Ref-3 and Ref-4 (in words)” value is listed as “significantly superior”.
